Test results taken from US20130189741A1, “COMPOSITIONS AND METHODS FOR REPROGRAMMING MAMMALIAN CELLS” (Cellscript, Inc., priority 2009, published 2013).

System: BJ fibroblasts
Test: Feeder-free reprogramming of BJ fibroblasts to iPSCs on MATRIGEL GFR matrix (Example 11)
Assay type: cell-based, human
Details: Day 17
Description: In EXAMPLE 11 embodiments, each in vitro-synthesized pseudouridine-containing ssRNA (i.e., synthesized using ΨTP in place of UTP in the IVT reaction) that encoded an iPSC induction factor [e.g., OCT4, SOX2, KLF4, LIN28, and either cMYC or cMYC(T58A)] or other pseudo-uridine-containing ssRNAs transfected together with the iPSC induction factors was treated with RNase III with 1 mM Mg(OAc)2 prior to capping and tailing of the ssRNA. In this EXAMPLE 11, the RNAse III treatment reactions also contained 0.8 U/microliter SCRIPTGUARD™ RNase inhibitor (CELLSCRIPT, INC.).
Prior to use for reprogramming, BJ fibroblasts (ATCC) were plated 5×10^4 cells per well on 6-well tissue culture plates coated with 83 ng per well of MATRIGEL™ GFR matrix (BD Biosciences, San Jose, Calif.) in Advanced MEM (Invitrogen, Carlsbad, Calif.) supplemented with 10% FBS (Fisher) and 2 mM GLUTAMAX™-I (Invitrogen, Carlsbad, Calif.), a minimum essential medium (MEM) useful for growth of fibroblast cells.
On the following day, the medium was changed to a “Feeder-free Reprogramming Medium” developed by the present applicants. This Feeder-free Reprogramming Medium was composed of Dulbecco's modified Eagle medium with nutrient mixture F-12 (DMEM/F12; (DMEM/F12; Invitrogen, Carlsbad, Calif.) supplemented with 20% KNOCKOUT™ serum replacement (Invitrogen), 2 mM GLUTAMAX™-I (Invitrogen), 0.1 mM non-essential amino acids solution (Invitrogen), 2 micromolar of the transforming growth factor 0 (TGFβ) inhibitor STEMOLECULE™ SB431542 (Stemgent®, Cambridge, Mass., USA), 0.5 micromolar of the MEK signaling pathway inhibitor STEMOLECULE™ PD0325901 (Stemgent), and/or 10 ng/ml the recombinant mouse cytokine, leukemia inhibitory factor (LIF or mLIF; Invitrogen, Carlsbad, Calif.), and 100 ng/ml basic human recombinant fibroblast growth factor (FGF; Invitrogen) with penicillin-streptomycin antibiotics. In some experiments, a lower or higher concentration of one or more of these inhibitors is used (e.g., 1-20 micromolar of the TGFβ inhibitor, 0.5-10 micromolar of the MEK signaling inhibitor, and/or 5-50 ng/ml the recombinant mouse cytokine, leukemia inhibitory factor). Since some of the molecules being inhibited may be introduced by the reagents or media used (e.g., TGFβ in the MATRIGEL™ or other extracellular matrix, the concentrations of the inhibitors used may vary based on the reagents and media used. In some experiments, the TGFβ inhibitor, MEK signaling inhibitor, and/or LIF was omitted from the feeder-free reprogramming medium. The Feeder-free Reprogramming Medium was changed daily one hour prior to each transfection with mRNA reprogramming factors. […] kit (Minis Bio LLC, Madison, Wis., USA) as described in the product literature: Briefly, a solution comprising a mixture of all of the mRNA reprogramming factors was diluted with 250 microliters of OPTI-MEM® I reduced serum medium (Invitrogen, Carlsbad, Calif.), and then 2.4 microliters of TRANSIT™ BOOST was added and mixed, followed by 2.4 microliters of the TRANSIT™ transfection reagent. In some embodiments, no inhibitor of expression of an innate immune response pathway was used. In some other embodiments, 132 ng of pseudouridine-containing mRNA encoding the B18R protein was added to the reprogramming factors comprising mRNA encoding OCT4, SOX2, KLF4, LIN28, and cMYC for reprogramming BJ fibroblasts. This transfection mix was applied dropwise to cells. Cells were then incubated at 37° C. in 5% CO2 until the next day's transfection. After 18 transfections, the medium was changed to a different “iPSC Maintenance Medium” that that was composed of DMEM/F12 supplemented with 20% KNOCKOUT™ serum replacement, 1 mM L-glutamine, 0.1 mM non-essential amino acids solution, and 100 ng/ml basic human recombinant fibroblast growth factor (FGF) (all from Invitrogen, Carlsbad, Calif.) with penicillin-streptomycin antibiotics for a few more days until iPSC colonies were big enough to pick manually. […]

## O=C(NOC[C@H](O)CO)c1ccc(F)c(F)c1Nc1ccc(I)cc1F [PD0325901]
PD0325901 0 μM, 2 micromolar SB431542
  iPSC Colonies Observed: 1
PD0325901 0.5 μM, 2 micromolar SB431542
  iPSC Colonies Observed: 77
PD0325901 1 μM, 2 micromolar SB431542
  iPSC Colonies Observed: 27
PD0325901 2 μM, 2 micromolar SB431542
  iPSC Colonies Observed: 94
PD0325901 10 μM, 2 micromolar SB431542
  iPSC Colonies Observed: 11
PD0325901 15 μM, 2 micromolar SB431542
  iPSC Colonies Observed: 0

## NC(=O)c1ccc(-c2nc(-c3ccc4c(c3)OCO4)c(-c3ccccn3)[nH]2)cc1 [SB431542]
SB431542 0 μM, five-factor Ψ-mRNA mix daily for 17 days
  iPSC Colonies Observed: 0
SB431542 1 μM
  iPSC Colonies Observed: 9
SB431542 2 μM
  iPSC Colonies Observed: 71
SB431542 4 μM
  iPSC Colonies Observed: 160
